Reference: patent EP0386044B1, “HYPOGLYCAEMIC PEPTIDES” (MONASH UNIVERSITY, priority 1987, dated 1997)
Where no end group is shown, it is not given here. [ ]: non-standard residue; d: D form.

Assays:
mice = assay: In vivo testing for insulin-potentiating activity on untrained and trained mice; details: untrained female mice and untrained or trained male mice, 2.3 or 2.4 mg/kg peptide in 0.2 ml saline, insulin injected at t0; Figures 12 and 13
Description: The dotted lines represent control animals (injected with 0.2 ml of saline) in each case. The unbroken lines represent test animals (injected with 2.4 mg/Kg of peptide in 0.2 ml of saline). Insulin was injected at to. • Figure 13 represents in vivo testing of peptides for insulin-potentiating activity on "untrained" and "trained" male mice. The dotted line represents the mean fall in blood glucose for control animals (injected with 0.2 ml of saline). The unbroken line represents the mean fall in blood glucose for test animals, injected with 2.3 mg/kg of peptide in 0.2 ml of saline, except for (a), in which the dose was 2.4 mg/kg. • (a) Pep 6-13 (Gln^11Asp^12), "untrained" • (b) Pep 6-13 (Gln^11Asp^12), "trained" • (c) Pep 6-13 (Asn^11Asp^12), "trained" • (d) Pep 6-13 (Asp^12), "trained" Insulin was injected at to.
The dose of Pep (6-13) was 200 µg/Kg body weight. Similarly, various forms of the peptide according to the invention in its β imide form potentiate the hypoglycaemic effect of insulin on "untrained" male and female mice. The effect on trained male mice trained to feed on schedule as described above was less striking, but still significant in some cases.

[1] = system: cultured muscle cells (L6 rat skeletal muscle cell line); assay: Cultured cell assay for stimulation of glucose uptake; format: cell-based; details: peptide 10µg/ml
Description: In these assays collagenase-dispersed rat adipocytes, cultured muscle cells (L6 rat skeletal muscle cell line) and hemidiaphragm preparations were employed.
The effect of the β imide form peptides on glucose metabolism is further shown by their ability to stimulate glucose uptake and glycogen synthesis by cultured muscle cells and isolated rat hemidiaphragms.

rats = assay: Decrease in blood glucose level in rats following intravenous injection of peptides; format: in vivo; details: for hypoglycaemic effect (change in blood glucose level), in words: injection of peptide, Table 2 and Figure 9; for Decrease in blood from basal / Difference from control mean: intravenous injection, peptide 0.5 µmol/100g; for Decrease in blood from basal: change of blood glucose from basal level (4.0 - 4.4 mmol glucose/l) at time 0, control 1.05; for Difference from control mean: difference of blood glucose decrease from control mean (1.05)
Description: Values are changes (means ± SEM) of blood glucose from the basal level (4.0 - 4.4 mmol glucose/l) at time 0. Differences between the control and test groups were statistically evaluated according to Student's t-test. N.S. indicates 2P > 0.05.
Similar results are illustrated graphically in Figure 9.

Substance | hypoglycaemic effect (change in blood glucose level), in words (rats) | Decrease in blood from basal (rats) | Difference from control mean (rats) | other results
L-α-Asp at position 11 in hGH[6-13]: inactive control peptide, hGH[6-13] with L-α-Asp at position 11 and Asp at 12 (LSRLFDDA; UniProt P01241 32-39, looked up, variant N12D) | – | – | – | insulin-potentiating activity (mice): inactive
LSRL[dF]DNA [Pep P057] | – | – | – | Rate of Increase from Basal [1]: 2.0 µmol glucose/hour
Pep (6-12): synthetic peptide corresponding to residues 6-12 of human growth hormone, α form (LSRLFDN; UniProt P01241 32-38, looked up, fragment) | active only in the β imide form | 1.00 | -0.05 | –
Pep (6-13) Ala^11 α form: variant Ala^11 of Pep (6-13), α form (LSRLFANA; UniProt P01241 32-39, looked up, variant D11A) | inactive | – | – | –
Pep (6-13) Gly^10 α form: variant Gly^10 of Pep (6-13), α form (LSRLGDNA; UniProt P01241 32-39, looked up, variant F10G) | inactive | – | – | –
Pep (6-13) Gly^10Pro^11 α form: variant Gly^10Pro^11 of Pep (6-13), α form (LSRLGPNA; UniProt P01241 32-39, looked up, variant F10G D11P) | inactive | – | – | –
Pep (6-13) Pro^11 α form: variant Pro^11 of Pep (6-13), α form (LSRLFPNA; UniProt P01241 32-39, looked up, variant D11P) | inactive | – | – | –
Pep (6-13) Tyr^10 α form: variant Tyr^10 of Pep (6-13), α form (LSRLYDNA; UniProt P01241 32-39, looked up, variant F10Y) | inactive | – | – | –
Pep (6-15): synthetic peptide corresponding to residues 6-15 of human growth hormone, α form (LSRLFDNAML; UniProt P01241 32-41, looked up, fragment) | active only in the β imide form | 1.26 | 0.21 | –
Pep (9-13): synthetic peptide corresponding to residues 9-13 of human growth hormone, α form (LFDNA; UniProt P01241 35-39, looked up, fragment) | neither the α form nor the β imide form was active | 1.12 | 0.07 | –
